Assay in all cases: NCI-60 cell line screen, 48 h
In assay [1] the test system is SF-539.
In assay [2] the test system is LXFL 529.
The subject of assay [3] is HOP-18.
Assay [4] has as its system TK-10.
The subject of assay [5] is HOP-62.
Assay [6] has as its system SR.
In assay [7] the test system is CCRF-CEM.
In assay [8] the test system is DMS-114.
For assay [9], the system named is SNB-78.
Assay [10] relates to OVCAR-4.
In assay [11] the test system is M14.
Assay [12] relates to SN12C.
Assay [13] relates to DMS-273.
The test system of assay [14] is KM-20L2.
For assay [15], the system named is MCF7.
The subject of assay [16] is NCI/ADR-RES.
Assay [17] has as its system 786-0.
Assay [18] has as its system MDA-MB-435.
The test system of assay [19] is T47D.
Assay [20] concerns PC-3.

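Each compound was tested at five concentrations against cells in 96-well plates for 48 hours. Abbreviation: GI50, concentration required for 50% inhibition of growth.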 Calls of active or inactive are those of the source. No stated cut-off is given here; in the data, active = GI50 up to about 1.1 µM and inactive = higher.

With `COc1ccc(/C=N/n2c(C)nc3c(sc(=S)n3-c3ccccc3)c2=O)cc1`, the GI50 in [1] is 47.3 µM (inactive); in assay [2], 49 µM (inactive); in assay [3], > 100 µM (inactive); in [4] it was > 100 µM (inactive); in assay [5] it was 66.8 µM (inactive); in [6] it was 44 µM (inactive). Further, the GI50 in assay [7] is 21.1 µM (inactive).

As to `COc1ccc(C2N(NC(=O)c3ccncc3)C(=O)CS2(=O)=O)cc1F` (centres undefined), the GI50 in [2], in [3], in assay [4], in assay [8], in [9] and in assay [10] was > 100 µM (inactive) throughout. The GI50 in [5], in assay [11], in [12], in assay [6], in [13] and in assay [7] was > 100 µM (inactive) in each case.

As to `O=C1CCC(c2ccccc2)=NN1c1nsc2ccccc12`, the GI50 in assay [1] is > 100 µM (inactive); in [2] it was > 100 µM (inactive); in [3], 19.6 µM (inactive); in assay [4] it was > 100 µM (inactive); in assay [8], 62.7 µM (inactive); in assay [9], > 100 µM (inactive). Besides, the GI50 is > 100 µM (inactive) in [10]; > 100 µM (inactive) in assay [5]; > 100 µM (inactive) in [11]; > 100 µM (inactive) in assay [14]; > 100 µM (inactive) in assay [12]; 58.9 µM (inactive) in assay [6]. Besides, the results for the GI50 in assay [13] and in assay [7] were 95.9 µM (inactive) and 61.4 µM (inactive), respectively.

Regarding `Cc1cc2c(ccc[n+]2[O-])[n+]([O-])c1`, the GI50 in [1], in assay [2], in assay [4], in [8], in [9] and in assay [10] was > 100 µM (inactive) each time. In addition, the GI50 in [5], in assay [11], in assay [14], in assay [12], in assay [6] and in assay [13] was > 100 µM (inactive) each time. Also, the GI50 in assay [7] was > 100 µM (inactive).

Consider `NC1CCCCC1`, for which the GI50 in assay [1] was 164 µM (inactive); in [3], < 0.0562 µM (active); in [15], 199 µM (inactive); in assay [8], > 56.2 µM (inactive); in assay [9], 292 µM (inactive); in [10], 265 µM (inactive). The GI50 in [5] was 223 µM (inactive); in assay [16], > 562 µM (inactive); in [14] it was 192 µM (inactive); in [12] it was > 562 µM (inactive); in assay [13] it was 189 µM (inactive); in [7], 260 µM (inactive).

With `CC(C)OP(=O)(OC(C)C)c1nn(-c2ccc([N+](=O)[O-])cc2)c(=N)s1`, the GI50 in assay [1] was > 100 µM (inactive); in assay [4], > 100 µM (inactive); in [8], 56.9 µM (inactive); in [10], > 100 µM (inactive); in [5], > 100 µM (inactive); in assay [11], > 100 µM (inactive). The GI50 in assay [14], in [12] and in assay [7] was > 100 µM (inactive) in each case.

`COc1cc(C2C(=O)C(Cl)N2Nc2nc(C)cc(O)n2)cc(OC)c1OC` (centres undefined): the GI50 was 13.5 µM (inactive) in assay [1]; 12.9 µM (inactive) in assay [2]; 2.67 µM (inactive) in [3]; 24.3 µM (inactive) in assay [4]; 8.67 µM (inactive) in assay [8]; 12.4 µM (inactive) in assay [9]. Besides, the GI50 in assay [10] is 16.1 µM (inactive); in [5] it was 7.21 µM (inactive); in assay [11] it was 12.5 µM (inactive); in assay [14] it was 22.6 µM (inactive); in [12] it was 14.7 µM (inactive); in [6] it was 11.6 µM (inactive). Also, the results for the GI50 in assay [13] and in assay [7] were 10.4 µM (inactive) and < 0.01 µM (active), respectively.

Consider `O=C(N/N=C/C=C/c1ccccc1)[C@H](O)[C@@H](O)C(=O)N/N=C/C=C/c1ccccc1`, for which the GI50 in assay [1], in [2], in [4], in [8], in [9] and in [14] was > 100 µM (inactive) each time. In addition, the GI50 in assay [12], in assay [6], in assay [13] and in [7] was > 100 µM (inactive) each time.

Take `NC(Cc1c[nH]c2ccccc12)C(=O)O` (stereo not drawn) [DL-TRYPTOPHAN]: the GI50 is > 300 µM (inactive) in assay [1]; 54.1 µM (inactive) in assay [3]; > 300 µM (inactive) in assay [15]; > 300 µM (inactive) in assay [8]; > 300 µM (inactive) in [9]; > 300 µM (inactive) in [10]. Also, the GI50 in assay [5] was > 300 µM (inactive); in [16], > 300 µM (inactive); in assay [14], > 300 µM (inactive); in assay [12], 3.74 µM (inactive); in assay [13] it was > 300 µM (inactive); in assay [7], > 300 µM (inactive).

In the case of `CC(=O)[C@H]1CCC2[C@@H]3CC=C4C(O)C(OS(=O)(=O)O)CC[C@]4(C)C3CC[C@@]21C` (some centres undefined), the GI50 in assay [1], in assay [3], in assay [15], in [8], in assay [9] and in [10] was > 100 µM (inactive) each time. Also, the GI50 in [5], in assay [16], in assay [14], in assay [12], in assay [13] and in assay [7] was > 100 µM (inactive) each time.

On to `CC1[C@@H]2CC=C3C4CCC5Cc6nc7c(nc6C[C@@]5(C)C4CC(=O)[C@]32CO[C@@]1(O)C(O)CC(C)(C)O)CC1CCC2C3=C[C@H]4O[C@@]5(O[C@@](C)(CO)C[C@@H]5O)C(C)[C@@]4(O)[C@]3(C)[C@@H](O)CC2[C@]1(C)C7` (some centres undefined), for which the GI50 in assay [1] was 0.00201 µM (active); in assay [3], 0.269 µM (active); in [15] it was 0.0109 µM (active); in [8], 0.000513 µM (active); in [9], 0.00146 µM (active); in [10], 0.431 µM (active). The GI50 was 0.000495 µM (active) in [5]; 0.612 µM (active) in assay [16]; 0.0069 µM (active) in assay [14]; 0.274 µM (active) in [12]; < 0.00036 µM (active) in [13]; 0.000753 µM (active) in [7].

Consider `O=c1ccc2cc3ccc4cccc5ccc(c2o1)c3c45`, for which the GI50 in [1] was 9.64 µM (inactive); in [2] it was 45 µM (inactive); in [3], 5.7 µM (inactive); in [4], > 100 µM (inactive); in assay [8], 33 µM (inactive); in [9], > 100 µM (inactive). Besides, the GI50 in assay [11] is > 100 µM (inactive); in assay [14], > 100 µM (inactive); in assay [12] it was 25 µM (inactive); in assay [7], > 100 µM (inactive).

As for `O=C1CN2C(Cl)(Cl)C2(c2ccccc2)c2cc(Cl)ccc2N1CC1CC1` (centres undefined), the GI50 is 42.4 µM (inactive) in [2]; 23.8 µM (inactive) in assay [3]; 33.8 µM (inactive) in assay [4]; 36.2 µM (inactive) in [8]; 30.3 µM (inactive) in assay [10]; 23.4 µM (inactive) in assay [5]. Besides, the GI50 was 20.1 µM (inactive) in assay [11]; 23.4 µM (inactive) in assay [14]; 20.8 µM (inactive) in [12]; 29.2 µM (inactive) in assay [6]; 25.5 µM (inactive) in assay [13]; 27.2 µM (inactive) in assay [7].

Take `O=C1C=CC=C/C1=C1/SC(c2ccccc2)=C(O)N1c1ccccc1`: the GI50 in assay [1], in assay [2], in assay [4], in assay [8], in assay [9] and in assay [10] was > 100 µM (inactive) throughout. For the same molecule, the GI50 in assay [17], in assay [14], in assay [12] and in assay [13] was > 100 µM (inactive) in each case.

As for `CCCCC1(N=[N+]=[N-])C(=O)c2cccc3c2N(CCC3)C1=O` (centres undefined), the GI50 in assay [1], in assay [18], in assay [15], in assay [4], in assay [19] and in [10] was > 100 µM (inactive) each time. Also, the GI50 is > 100 µM (inactive) in [5]; 31 µM (inactive) in [16]; > 100 µM (inactive) in assay [17]; > 100 µM (inactive) in assay [20]; > 100 µM (inactive) in assay [11]; > 100 µM (inactive) in assay [12]. Besides, the figures for the GI50 in [6] and in assay [7] were > 100 µM (inactive) and 91.6 µM (inactive), respectively.

For the molecule `CCN(CC)C(=O)c1cc(OC(C)C)ccc1-c1c(C)cc(OC(C)C)c(OC)c1OC`, the GI50 in assay [1] was 92 µM (inactive); in [4], > 100 µM (inactive); in assay [8], 36.5 µM (inactive); in [10], 47.5 µM (inactive); in assay [5], > 100 µM (inactive); in assay [11], 79.4 µM (inactive). The GI50 in [14] was 74 µM (inactive); in [12], 61.4 µM (inactive); in assay [6], 33.6 µM (inactive); in assay [13], 41.6 µM (inactive); in [7], 34 µM (inactive).

(Values after ChEMBL document CHEMBL1201862, “PubChem BioAssay data set” (2004).)
